Data as given in patent US20190015383A1, “CANNABINOID COMPOSITIONS AND METHODS OF PREPARATION THEREOF” (5071, Inc., priority 2017, published 2019).

Assay: Water solubility testing (solubility time in water)
Assay type: physicochemical
Details: 10 mg sample in 240 mL water, magnetic stirring
Description: Water solubility testing was performed for Compositions C, D1, D2, and E described in Examples 3, 4, and 6. Each composition was tested at temperatures of 22° C. (tap water) and 10° C. (iced tap water). For each test, 240 mL of water at the target temperature (22° C. or 10° C.) was added to a beaker and a magnetic stirrer used with medium agitation, creating a slight vortex. A 10 mg sample of the composition to be tested was added over a 1-2 second time period and allowed to mix. The time in seconds until no particulates were visually discernable (either suspended in solution or settled out) was recorded as the solubility time. The solubility of table sugar (i.e., granulated sucrose) was also tested according to the same procedure for comparison.
The following categories were used to assess solubility characteristics: <30 sec=excellent to good solubility, 1-3 min=fair solubility, 3-5 min=poor solubility, and >5 min=insoluble.

OC[C@H]1O[C@@](CO)(O[C@H]2O[C@H](CO)[C@@H](O)[C@H](O)[C@H]2O)[C@@H](O)[C@@H]1O [Table sugar, sucrose]
Solubility time (10° C. (iced tap water)): <60 s | Solubility time (22° C. (tap water)): 22 s
